According to US12552768B2, “Pyridinylpyrazole derivative or pharmaceutically acceptable salt thereof and use thereof” (INDUSTRY-UNIVERSITY COOPERATION FOUNDATION HANYANG …, priority 2021, dated 2026):

Key:
[1] = molecular target: PLK1(h) (Homo sapiens, UniProt P53350); assay: PLK1 kinase inhibition, radiometric [33P-ATP] assay (IC50 Profiler Express); type: biochemical; settings: for IC50: 10 μM ATP, 1 μM substrate (casein), 40 minutes at room temperature
Description: (§1) The analysis protocol was as follows. 1 μM substrate (casein), 10 μM ATP and PLK1(h) (5-10 mU) were incubated with 25 mM Tris pH 7.5, 0.02 mM EGTA, 0.66 mg/mL myelin basic protein, 10 mM Mg acetate and [33P-ATP] (specific activity of about 500 cpm/pmol, concentration as required) in a reaction solution with a final volume of 25 μL. The reaction was initiated by adding Mg-ATP mixture. After incubation at room temperature for 40 minutes, the reaction was stopped by adding 5 μL of a 3% phosphoric acid solution. 10 μL of the reaction solution was spotted on a P30 filter mat and washed 3 times for 5 minutes in 75 mM phosphoric acid and once in methanol prior to drying and scintillation counting. The 30 selected protein kinases were ABL1, AKT1, ALK, Aurora A, AXL, AXL (R499C), BRAF (V599E), BTK, c-MER, c-MET, c-Src, CAMKK1, CDK1/cyclin A, EGFR, ERK1, FGFR3, FYN, IGF1R, JAK3, KDR/VEGFR2, LCK, LYN, MEK1, PKA, PLK1, PLK2, PLK3, PLK4/SAK, SYK and TYRO3/SKY4.

[2] = test system: 30 selected protein kinases; assay: Selected kinase profiling of 30 protein kinases (Reaction Biology Kinase Hot Spot service); type: biochemical; settings: screening at 10 μM or 30 μM (FIG. 2)
Description: as §1

Chain of PLK1(h) (P53350 whole entry): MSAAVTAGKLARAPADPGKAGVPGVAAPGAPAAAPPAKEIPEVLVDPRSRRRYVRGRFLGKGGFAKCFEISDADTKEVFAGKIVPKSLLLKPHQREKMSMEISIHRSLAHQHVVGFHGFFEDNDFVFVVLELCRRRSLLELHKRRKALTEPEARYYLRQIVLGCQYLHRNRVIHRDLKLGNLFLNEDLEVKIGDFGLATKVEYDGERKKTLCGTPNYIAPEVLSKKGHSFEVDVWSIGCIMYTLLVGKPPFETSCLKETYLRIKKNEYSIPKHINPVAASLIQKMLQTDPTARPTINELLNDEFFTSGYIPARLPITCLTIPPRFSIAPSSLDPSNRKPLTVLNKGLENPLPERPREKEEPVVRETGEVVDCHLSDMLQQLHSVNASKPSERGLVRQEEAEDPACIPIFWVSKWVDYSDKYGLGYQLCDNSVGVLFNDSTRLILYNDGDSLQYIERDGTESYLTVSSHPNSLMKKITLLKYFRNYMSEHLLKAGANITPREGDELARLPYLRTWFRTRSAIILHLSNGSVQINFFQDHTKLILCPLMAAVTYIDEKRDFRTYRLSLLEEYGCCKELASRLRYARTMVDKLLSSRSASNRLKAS

## COc1ccccc1Nc1cc(-n2cc(OCc3ccc(CO)cc3Cl)c(C(N)=O)n2)ccn1 [Compound 17]
[1]
  IC50: 312 nM

## NC(=O)c1nn(-c2ccnc(Nc3ccccc3)c2)cc1OCc1ccccc1C(F)(F)F [Compound 13b]
[1]
  IC50: 847 nM

## COc1ccccc1Nc1cc(-n2cc(OCc3ccccc3)c(C(N)=O)n2)ccn1 [Compound 14a]
[1]
  IC50: 1020 nM

## CN(C)Cc1ccc(COc2cn(-c3ccnc(Nc4ccccc4)c3)nc2C(N)=O)c(Cl)c1 [Compound 16, 4-((2-chloro-4-((dimethylamino)methyl)benzyl)oxy)-1-(2-(phenylamino)pyridin-4-yl)-1H-pyrazole-3-carboxamide]
[1]
  IC50: 1010 nM

## NC(=O)c1nn(-c2ccnc(Nc3ccccc3)c2)cc1OCc1ccccc1 [Compound 13a, 4-(benzyloxy)-1-(2-(phenylamino)pyridin-4-yl)-1H-pyrazole-3-carboxamide]
[1]
  IC50: 9890 nM

## COc1ccccc1Nc1cc(-n2cc(OCc3ccc(CN(C)C)cc3Cl)c(C(N)=O)n2)ccn1 [Compound 18]
[1]
  IC50: 998 nM

## NC(=O)c1nn(-c2ccnc(Nc3ccccc3)c2)cc1OCc1ccc(CO)cc1Cl [Compound 15, 4-((2-chloro-4-(hydroxymethyl)benzyl)oxy)-1-(2-(phenylamino)pyridin-4-yl)-1H-pyrazole-3-carboxamide]
[2]
  selectivity for PLK1 over other protein kinases (in words): superior effect of inhibiting PLK1 selectively as compared to other protein kinases
[1]
  inhibitory activity against PLK1 (in words): highest inhibitory activity against PLK1
  IC50: 219 nM

## COc1ccccc1Nc1cc(-n2cc(OCc3ccccc3C(F)(F)F)c(C(N)=O)n2)ccn1 [Compound 14b]
[1]
  IC50: 1310 nM
